Structures are written as SMILES.

This is an account of results in patent US20250332131A1, “COMPOSITION FOR ACTIVATING NICOTINAMIDE PHOSPHORIBOSYLTRANSFERASE” (Yuki Gosei Kogyo Co., Ltd., priority 2024, published 2025).

In the test the test system is miRNA contained in exosomes secreted from C2C12 cells. The following applies: ratio of 1.5 or more compared to the control and signal value exceeding 100; Table 1, FIG. 5. As to the method:
In this example, miRNA in exosomes was analyzed by microarray.
The exosome solution purified in Example 2 was used for microarray analysis. The microarray experiment was outsourced to Kamakura Techno Science (Kanagawa, Japan). Based on the data obtained, samples with a ratio of 1.5 or more compared to the control and with either of the two samples with a signal value exceeding 100 were extracted as miRNAs with altered transcription levels.

In the case of `NCCC(=O)O` [β-alanine, 3-aminopropanoic acid], the “miRNA increased in exosomes of C2C12 cells” value is listed as “six RNAs were increased”.
